Measurements taken from patent publication US20230295152A1 (SENDA BIOSCIENCES, INC., priority 2019, published 2023).

Assays:
[1] = In vivo PK study in male Sprague Dawley rats; conditions: for AUC(0-inf): read-out: AUCInf Mean; for AUC(0-t): read-out: AUCLast Mean
Protocol: (§1) The studies were conducted in male Sprague Dawley rats, three rats per group, or male CD1 mice, three mice per group. Compounds were dosed 1.0 mg/Kg i.v. (vehicle ethanol: % PEG400 in deionized water, in proportions suitable for dosing a clear solution) and 3.0 mg/kg or 10 mg/kg p.o. (vehicle: 1% methyl cellulose: 1,500 cP in DI water (w/v)). A11 animals had free access to food and water. Rat i.v. PK time points: Plasma: 0.083, 0.25, 0.5, 1, 2, 4, 8 and 24 h; Rat p.o. PK time points: Plasma: 0.25, 0.5, 1, 2, 4, 8 and 24 h. Mouse i.v. PK time points: Plasma: 0.083, 0.25, 0.5, 1, 2, 4, 8, 24, and 48 h; Mouse p.o. PK time points: Plasma: 0.25, 0.5, 1, 2, 4, 8, 24, and 48 h. Concentrations of compound in the plasma samples were analyzed using a LC-MS/MS method. WinNonlin (Phoenix™, version 6.1) or other similar software was used for pharmacokinetic calculations.

[2] = In vivo PK study in male CD1 mice; conditions: for AUC(0-t): read-out: AUCLast Mean
Protocol: as §1

[3] = target: T1, hERG channels (Homo sapiens, UniProt Q12809); test: hERG Inhibition Assay, patch clamp in hERG stably expressed HEK 293 cell line; format: cell-based; conditions: read-out: hERG channel: IC50
T1 construct: host or cells: HEK 293
Protocol: hERG stably expressed HEK 293 cell line (Cat #K1236) was purchased from Invitrogen. The cells are cultured in 85% DMEM, 10% dialyzed FBS, 0.1 mM NEAA, 25 mM HEPES, 100 U/mL Penicillin-Streptomycin and 5 μg/mL Blasticidin and 400 μg/mL Geneticin. Cells are split using TrypLE™ Express about three times a week and maintained between ˜40% to ˜80% confluence. Before the assay, the cells were onto the coverslips at 5×10^5 cells/per 6 cm cell culture dish and induced with doxycycline at 1 μg/mL for 48 hours.
External solution (in mM): 132 NaCl, 4 KCl, 3 CaCl2), 0.5 MgCl2, 11.1 glucose, and 10 HEPES (pH adjusted to 7.35 with NaOH). Internal solution (in mM): 140 KCl, 2 MgCl2, 10 EGTA, 10 HEPES and 5 MgATP (pH adjusted to 7.35 with KOH). Working solution preparation for test compound: test compounds were initially prepared in DMSO with final concentration of 10 mM as stock solution. Stock solution of each compound was serial-diluted by ratio of 1:3 with DMSO to prepare additional 3 intermediate solutions including 3.33, 1.11 and 0.37 mM.
Before performing the hERG assay, the working solutions were prepared by dilution of 10, 3.33, 1.11, and 0.37 mM intermediate solutions in 1000 folds using extracellular solution, while 30 μM working solution was prepared by 333.333-folds dilution of 10 mM DMSO stock. so that the final concentration of working solution was 30, 10, 3.33, 1.11 and 0.37 μM. The final DMSO concentration in working solutions was maintained in range of 0.1-0.3% (v/v).
Experimental procedure: the coverslip was removed from the cell culture dish and placed it on the microscope stage in bath chamber. A desirable cell was located using the ×10 objective. The tip of the electrode was located under the microscope using the ×10 objective by focusing above the plane of the cells. Once the tip was in focus, the electrode was advanced downwards towards the cell using the coarse controls of the manipulator, while simultaneously moving the objective to keep the tip in focus. When directly over the cell, the fine controls of the manipulator were used to approach the surface of the cell in small steps, by using the ×40 objective. Gentle suction was applied through the side-port of the electrode holder to form a gigaohm seal.
Cfast was used to remove the capacity current that is in coincidence with the voltage step. The whole cell configuration was obtained by applying repetitive, brief, strong suction until the membrane patch has ruptured. membrane potential was set to −60 mV at this point to ensure that hERG channels were not open. The spikes of capacity current was then cancelled using the Cslow on the amplifier.
Holding potential was set to −90 mV for 500 ms; current was recorder at 20 kHz and filtered at 10 kHz. Leaking current was tested at −80 mV for 500 ms.
The hERG current was elicited by depolarizing at +30 mV for 4.8 seconds and then the voltage was taken back to −50 mV for 5.2 seconds to remove the inactivation and observe the deactivating tail current. The maximum amount of tail current size was used to determine hERG current amplitude. Current was recorded for 120 seconds to assess current stability. Only stable cells with recording parameters above threshold were proceeded with further drug administrations. Vehicle control was applied to the cells to establish the baseline. […] For dose response testing, 5 doses of test compound was applied to the cells cumulatively from low to high concentrations. In order to ensure the good performance of cultured cells and operations, the positive control, Dofetilide, with 5 doses was also used to test the same batch of cells.
The following criteria were used to determine data acceptability: initial seal resistance>1 GΩ; leak currents<50% of the control peak tail currents at any time; the peak tail amplitude>300 pA; membrane resistance Rm>500 MΩ; access resistance (Ra)<15 MΩ; apparent run-down of peak current<2.5% per min. […]

[4] = male, Sprague Dawley, rat, plasma, rats, 1 mg/kg IV
[5] = male, Sprague Dawley, rat, plasma, rats, 1 mg/kg IV, read-out: T1/2 Mean (converted)
[6] = male, Sprague Dawley, rat, plasma, rats, PO, dosage of 3 mg/kg
[7] = male, Sprague Dawley, rat, plasma, rats, PO, dosage of 3 mg/kg, read-out: Bioavailability
[8] = male, CD1, mouse, plasma, mice, 1 mg/kg IV
[9] = male, CD1, mouse, plasma, mice, 1 mg/kg IV, read-out: T1/2 Mean (converted)
[10] = male, CD1, mouse, plasma, mice, 10 mg/kg PO
[11] = male, CD1, mouse, plasma, mice, 10 mg/kg PO, read-out: Bioavailability

T1 sequence (Q12809 whole entry): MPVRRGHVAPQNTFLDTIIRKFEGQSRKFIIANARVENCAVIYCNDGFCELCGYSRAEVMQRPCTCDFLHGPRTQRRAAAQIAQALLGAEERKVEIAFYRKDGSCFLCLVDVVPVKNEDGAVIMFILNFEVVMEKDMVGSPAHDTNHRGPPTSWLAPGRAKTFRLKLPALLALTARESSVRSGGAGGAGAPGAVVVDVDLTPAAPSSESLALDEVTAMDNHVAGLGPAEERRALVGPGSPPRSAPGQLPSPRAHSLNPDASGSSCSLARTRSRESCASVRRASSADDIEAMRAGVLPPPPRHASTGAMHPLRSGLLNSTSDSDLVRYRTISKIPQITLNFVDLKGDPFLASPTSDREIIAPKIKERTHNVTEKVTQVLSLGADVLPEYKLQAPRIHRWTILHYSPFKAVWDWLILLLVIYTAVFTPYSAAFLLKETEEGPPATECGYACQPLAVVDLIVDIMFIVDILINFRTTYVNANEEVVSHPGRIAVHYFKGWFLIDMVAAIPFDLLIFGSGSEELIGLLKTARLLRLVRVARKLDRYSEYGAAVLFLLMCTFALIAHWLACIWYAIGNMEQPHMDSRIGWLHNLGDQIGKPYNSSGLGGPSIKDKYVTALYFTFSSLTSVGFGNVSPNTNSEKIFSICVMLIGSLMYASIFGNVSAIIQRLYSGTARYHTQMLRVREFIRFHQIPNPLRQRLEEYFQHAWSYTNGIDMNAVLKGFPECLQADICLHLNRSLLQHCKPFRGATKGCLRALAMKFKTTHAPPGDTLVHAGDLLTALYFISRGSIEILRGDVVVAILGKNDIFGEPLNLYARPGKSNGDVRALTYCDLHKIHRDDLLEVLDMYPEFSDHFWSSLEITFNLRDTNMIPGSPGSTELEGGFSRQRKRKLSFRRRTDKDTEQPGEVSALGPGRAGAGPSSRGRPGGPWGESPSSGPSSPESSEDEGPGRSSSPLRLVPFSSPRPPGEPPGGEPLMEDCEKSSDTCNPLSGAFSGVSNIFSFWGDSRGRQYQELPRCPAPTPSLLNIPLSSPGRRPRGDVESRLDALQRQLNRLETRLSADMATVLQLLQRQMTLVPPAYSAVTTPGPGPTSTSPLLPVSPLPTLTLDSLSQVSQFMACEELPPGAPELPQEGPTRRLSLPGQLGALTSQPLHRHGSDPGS

Row | SMILES | C0 [1, 4] [ng/mL] | AUC(0-inf) [1, 4] [ng·h/mL] | AUC(0-t) [1, 4] [ng·h/mL] | half-life [1, 5] [h] | Cmax [1, 6] [ng/mL] | Tmax [1, 6] [h] | AUC(0-t) [1, 6] [ng·h/mL] | bioavailability [1, 7] [%] | CI Mean ([1]; rats, 1 mg/kg IV) [mL/min/kg] | C0 [2, 8] [ng/mL] | AUC(0-t) [2, 8] [ng·h/mL] | half-life [2, 9] [h] | Cmax [2, 10] [ng/mL] | Tmax [2, 10] [h] | AUC(0-t) [2, 10] [ng·h/mL] | bioavailability [2, 11] [%] | CI Mean ([2]; mice, 1 mg/kg IV) [mL/min/kg] | IC50 [3] [µM] | also measured
1 | Cn1cc(-c2nc(-c3ccc(C(F)(F)F)nc3)cc3c(=O)n(CC(C)(C)O)cnc23)cn1 [Compound 60] | 425 | 3050 | 2910 | 5.61 | 152 | 5.33 | 2430 | 27.9 | 91.3 | 350 | 6520 | 11.8 | 1120 | 8 | 29800 | 45.7 | 40.3 | > 30 | –
2 | CC(C)(O)Cn1cnc2c(-c3cccnc3)nc(-c3ccc(C(F)(F)F)nc3)cc2c1=O [Compound 9] | – | – | – | – | – | – | – | – | – | – | 4880 | 5.37 | 1470 | 5.67 | – | 70.3 | 57 | 12.1 | Rat CL (% Qh) ([1]; in vivo DMPK profile, rat): 5.8 % Qh; clearance ([1]; male, Sprague Dawley, plasma, intravenous, 1 mg/kg, in vivo DMPK profile, rat, read-out: Rat CL): 4.1 mL/min/kg; half-life ([1]; male, Sprague Dawley, plasma, intravenous, 1 mg/kg, in vivo DMPK profile, rat, read-out: Rat T1/2 (converted)): 5.4 h; Vd ([1]; male, Sprague Dawley, plasma, intravenous, 1 mg/kg, in vivo DMPK profile, rat, read-out: Rat Vss): 1.75 L/kg; bioavailability ([1]; male, Sprague Dawley, plasma, oral, 3 mg/kg, in vivo DMPK profile, rat, read-out: Rat % F): 77%; Mouse CL (% Qh) ([2]; in vivo DMPK profile, mouse): 3.85 % Qh; AUC(0-inf) ([2]; male, CD1, mouse, plasma, mice, 10 mg/kg PO, read-out: AUCInf Mean): 34200 ng·h/mL; clearance ([2]; male, CD1, plasma, intravenous, 1 mg/kg, in vivo DMPK profile, mouse, read-out: Mouse CL): 3.4 mL/min/kg; half-life ([2]; male, CD1, plasma, intravenous, 1 mg/kg, in vivo DMPK profile, mouse, read-out: Mouse T1/2 (converted)): 5.4 h; Vd ([2]; male, CD1, plasma, intravenous, 1 mg/kg, in vivo DMPK profile, mouse, read-out: Mouse Vss): 1.9 L/kg; bioavailability ([2]; male, CD1, plasma, oral, 10 mg/kg, in vivo DMPK profile, mouse, read-out: Mouse % F): 70.3%
3 | Cn1cc(-c2nc(-c3ccc(C(F)(F)F)cn3)cc3c(=O)n(CC(C)(C)O)cnc23)cn1 [Compound 103, 3-(2-hydroxy-2-methylpropyl)-8-(1-methyl-1H-pyrazol-4-yl)-6-(5-(trifluoromethyl)pyridin-2-yl)pyrido[3,4-d]pyrimidin-4(3H)-one] | 199 | 12300 | 2790 | 63 | 40.2 | 8 | 794 | 9.49 | 26 | 349 | 10400 | 69.5 | 152 | 13.3 | 6060 | 5.82 | 10.7 | > 10 | –
4 | CC(C)(O)Cn1cnc2c(-c3cccnc3)nc(-c3ccc(C(F)(F)F)cn3)cc2c1=O [Compound 105] | 411 | 9520 | 4410 | 27.1 | 592 | 6.67 | 11900 | 90.2 | 29.5 | 412 | 11300 | 55.9 | 2350 | 12 | 96100 | 85 | 11.4 | 11.8 | half-life ([2]; male, CD1, mouse, plasma, mice, 10 mg/kg PO, read-out: T1/2 Mean (converted)): 48.5 h
